Measurements published in the supplement of paper PMC5908809.

Assays:
Assay in all cases: percent inhibition of viability; higher = more inhibition
[1] = tested on: normal primary NK cells, pool 1 (3 donors), resting (IL-2 0 ng/mL); details: 72 h
NKL (IL-2 2.5 ng/mL) = details: 72 h
[2] = tested on: normal primary NK cells, pool 1 (3 donors) (IL-2 2.5 ng/mL); details: 72 h
[3] = tested on: normal primary NK cells, pool 3 (3 donors) (IL-2 2.5 ng/mL); details: 72 h
IMC-1 (IL-2 20 ng/mL) = details: 72 h
SNK-6 (IL-2 2.5 ng/mL) = details: 72 h
KHYG-1 (IL-2 2.5 ng/mL) = details: 72 h
DERL-7 (IL-2 2.5 ng/mL) = details: 72 h
[4] = tested on: normal NK cells expanded with K562-aAPC; details: 72 h, IL-2 2.5 ng/mL
Method: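 Drug sensitivity and resistance testing on K562-aAPC-expanded normal NK cells: 5 concentrations (10-fold steps over a 10,000-fold range), 72 h at 37 °C, viability by CellTiter-Glo normalised to DMSO and benzethonium chloride controls; DSS from the fitted curve.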

O=C(c1ccc(/C=C/c2n[nH]c3ccccc23)cc1)N1CCNCC1 [KW-2449] (max concentration tested 2500 nM)
percent inhibition of viability [%]
Details	DERL-7 (IL-2 2.5 ng/mL)	IMC-1 (IL-2 20 ng/mL)	KHYG-1 (IL-2 2.5 ng/mL)	NKL (IL-2 2.5 ng/mL)	SNK-6 (IL-2 2.5 ng/mL)	[1]	[2]	[3]	[4]
0.25 nM	-3.07	-4.33	-4.37	-16.7	11.8	–	0.56	-10.8	1.55
2.5 nM	-3.42	-2.55	-3.8	-15.7	9.47	–	-11.2	-6.97	-7.82
25 nM	-0.35	-3.12	-7.48	-8.73	14.2	–	-7.09	-9.8	-4.83
250 nM	-5.82	-4.5	-0.63	-17	3.56	-1.76	-3.29	-18.2	-5.26
2500 nM	52	-8.66	63.4	8.68	67.5	-0.59	23.3	-0.01	33
